Where two headings read alike, the source gives them in different places.
Key:
[1] = target: T1, OCT2 (hOCT2) (Homo sapiens, UniProt O15244); test: OCT2 transport inhibition; type: cell-based; conditions: models overexpressing hOCT2, Supplementary Figure S4D
T1 construct: expressed in transfected cells; host or cells: overexpressing cell model
T1 sequence (O15244 1-555): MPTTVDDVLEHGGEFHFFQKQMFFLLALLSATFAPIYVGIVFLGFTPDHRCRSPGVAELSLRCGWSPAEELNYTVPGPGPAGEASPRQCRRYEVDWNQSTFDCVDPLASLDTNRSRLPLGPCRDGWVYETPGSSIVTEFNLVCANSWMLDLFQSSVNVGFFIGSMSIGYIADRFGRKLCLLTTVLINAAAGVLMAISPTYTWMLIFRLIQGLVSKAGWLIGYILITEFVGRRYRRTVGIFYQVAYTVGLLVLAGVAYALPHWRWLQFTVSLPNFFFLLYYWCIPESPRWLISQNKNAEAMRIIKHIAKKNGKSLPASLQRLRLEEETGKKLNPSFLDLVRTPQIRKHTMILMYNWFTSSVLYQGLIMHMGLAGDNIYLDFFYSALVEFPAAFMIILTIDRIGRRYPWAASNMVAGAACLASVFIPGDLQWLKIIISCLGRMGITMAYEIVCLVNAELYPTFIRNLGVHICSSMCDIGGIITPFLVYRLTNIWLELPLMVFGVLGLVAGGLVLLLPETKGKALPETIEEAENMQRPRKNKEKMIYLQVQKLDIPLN
Method: (§1) Uptake assays were performed with radiolabeled TEA (2 µM) or metformin (5 µM) as described previously ([Sprowl et al., 2013]; [Pabla et al., 2015]) in the presence or absence of TKIs. The results were normalized to uptake values in cells stably transfected with an empty vector treated with vehicle alone (Supplementary Figure S1). Prior to cellular accumulation experiments, cells were grown to 90% confluence on poly-lysine coated multi-well plates. For uptake studies, cells were rinsed with warm PBS and incubated in the presence of a vehicle or inhibitor, prepared in serum and phenol red-free DMEM media for 15 min. Subsequently, media was removed followed by the addition of radiolabeled TEA and metformin along with inhibitor, and cellular uptake was measured after a 15-min co-incubation period. Total radioactivity originating from TEA and metformin was determined using liquid scintillation counting after lysing the cells with 1 N NaOH, a neutralizing step with 2 M HCl. A Pierce protein assay (Thermo Fisher Scientific, Waltham, MA) was used to normalize radioactivity readings to account for variation in cell number between samples.

[2] = target: T2, mouse OCT1 (mOCT1) (Mus musculus, UniProt O08966); test: Cellular uptake of [14C] TEA in HEK293 cells overexpressing mOCT1, with or without inhibitor; type: cell-based
T2 construct: expressed in transfected cells
T2 sequence (O08966 1-556): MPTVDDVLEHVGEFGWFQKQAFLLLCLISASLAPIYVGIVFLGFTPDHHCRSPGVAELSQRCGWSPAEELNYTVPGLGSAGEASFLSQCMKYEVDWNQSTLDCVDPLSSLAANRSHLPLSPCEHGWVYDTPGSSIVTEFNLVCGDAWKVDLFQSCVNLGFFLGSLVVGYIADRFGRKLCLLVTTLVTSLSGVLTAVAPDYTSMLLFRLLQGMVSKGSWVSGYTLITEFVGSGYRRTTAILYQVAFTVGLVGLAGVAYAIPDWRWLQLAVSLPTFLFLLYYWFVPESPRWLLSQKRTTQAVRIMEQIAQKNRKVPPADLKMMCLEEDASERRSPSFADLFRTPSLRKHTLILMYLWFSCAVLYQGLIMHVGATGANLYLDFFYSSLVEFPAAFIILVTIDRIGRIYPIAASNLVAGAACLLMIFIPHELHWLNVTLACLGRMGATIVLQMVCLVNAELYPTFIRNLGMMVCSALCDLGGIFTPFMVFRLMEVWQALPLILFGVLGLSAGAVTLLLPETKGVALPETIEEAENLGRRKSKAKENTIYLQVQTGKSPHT
Method: (§2) Human embryonic kidney (HEK293) cells were obtained from the American Type Culture Collection (ATCC, Manassas, VA). HEK293 cells stably transfected with mouse OCT1 (mOCT1) or human OCT1 (hOCT1) were cultured in Dulbecco’s Modified Eagle Media (DMEM) media supplemented with 10% fetal bovine serum (FBS) and grown at 37°C in a humidified incubator containing 5% CO2. Radiolabeled [^14C] TEA and [^14C] metformin were obtained from American Radiochemicals (St. Louis, MO). Cellular uptake assays were performed 48 h following transient transfection by Lipofectamine 3000 Transfection Reagent (Thermo Fisher Scientific, Waltham, MA). ON-TARGETplus Human YES1 siRNA was obtained from Dharmacon (Lafayette, CO). RNA extraction kits were obtained from Omega Bio-tek (Norcross, GA).
as §1

[3] = target: T3, human OCT1 (hOCT1) (Homo sapiens, UniProt O15245); test: Cellular uptake of [14C] TEA or [14C] metformin in HEK293 cells overexpressing hOCT1, with or without inhibitor; type: cell-based; conditions: for OCT1 function (TEA transport) in presence of TKI: HEK293-hOCT1, TKI 10 µM, Figure 2D
T3 construct: expressed in transfected cells
T3 sequence (O15245 1-554): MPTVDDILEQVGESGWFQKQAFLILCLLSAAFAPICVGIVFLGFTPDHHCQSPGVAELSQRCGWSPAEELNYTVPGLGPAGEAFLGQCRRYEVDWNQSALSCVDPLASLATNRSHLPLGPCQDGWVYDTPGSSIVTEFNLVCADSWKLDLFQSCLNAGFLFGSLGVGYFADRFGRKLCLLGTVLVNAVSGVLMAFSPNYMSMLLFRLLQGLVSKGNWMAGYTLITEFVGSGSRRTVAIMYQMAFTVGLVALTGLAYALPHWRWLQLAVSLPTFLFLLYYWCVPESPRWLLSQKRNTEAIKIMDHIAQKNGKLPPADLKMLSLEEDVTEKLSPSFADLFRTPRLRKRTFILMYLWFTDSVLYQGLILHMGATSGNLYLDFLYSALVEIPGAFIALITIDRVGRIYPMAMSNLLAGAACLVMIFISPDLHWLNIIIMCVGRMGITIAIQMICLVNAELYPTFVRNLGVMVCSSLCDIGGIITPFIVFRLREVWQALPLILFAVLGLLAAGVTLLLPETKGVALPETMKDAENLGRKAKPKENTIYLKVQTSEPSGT
Method: as §2
as §1, with “The” for “Uptake assays were performed with radiolabeled TEA (2 µM) or metformin (5 µM) as described previously ([Sprowl et al., 2013]; [Pabla et al., 2015]) in the presence or absence of TKIs. The”

[4] = system: OCT1 (mouse and human); test: Dose-response OCT1 uptake inhibition, summarised across mOCT1 and hOCT1 models and test substrates; type: cell-based; conditions: mouse and human, probe [14C] TEA (2 µM) or [14C] metformin (5 µM); range over mOCT1/hOCT1 models and test substrates
Method: as §2, §1

[5] = system: OCT1; test: as above; type: cell-based, human and mouse; conditions: for OCT1 inhibition: Yes/No; for OCT1 function in dose-response experiments: species-independent, regardless of test substrate
Method: as §2, §1

[6] = target: T4, hepatic OCT1 (Mus musculus, UniProt O08966); test: Plasma isobutyryl L-carnitine (IBC) after a single oral dose of dasatinib in mice; type: in vivo; design: from tissue; host or cells: liver of wild-type mice, in vivo; conditions: single oral dose 15 mg/kg
T4 sequence (O08966 1-556): T2 sequence (O08966 1-556)

[7] = target: T5, OCT3 (Homo sapiens, UniProt O75751); test: OCT3 transport inhibition by TKIs (Supplementary Figure S2); type: cell-based
T5 sequence (O75751 1-556): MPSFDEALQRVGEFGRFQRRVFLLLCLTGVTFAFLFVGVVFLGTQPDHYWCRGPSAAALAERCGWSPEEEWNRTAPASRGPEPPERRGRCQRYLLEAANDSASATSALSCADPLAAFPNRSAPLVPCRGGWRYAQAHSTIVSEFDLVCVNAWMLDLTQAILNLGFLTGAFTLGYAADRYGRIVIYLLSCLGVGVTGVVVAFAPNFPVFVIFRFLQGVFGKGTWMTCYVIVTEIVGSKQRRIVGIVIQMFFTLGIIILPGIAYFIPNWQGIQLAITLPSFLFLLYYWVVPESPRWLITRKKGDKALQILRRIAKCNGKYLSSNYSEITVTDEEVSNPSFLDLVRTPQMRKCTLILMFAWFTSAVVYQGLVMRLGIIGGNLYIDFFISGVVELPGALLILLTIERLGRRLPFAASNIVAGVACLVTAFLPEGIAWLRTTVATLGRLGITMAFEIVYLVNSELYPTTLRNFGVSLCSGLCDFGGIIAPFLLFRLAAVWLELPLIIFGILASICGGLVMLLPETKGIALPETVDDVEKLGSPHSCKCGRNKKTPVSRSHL
Method: as §1

[8] = target: T1, OCT2 (hOCT2); conditions: cited from earlier work; for OCT2 inhibition: Yes/No, TKIs previously found to inhibit OCT2
[9] = system: YES1 / hOCT1; test: Chemical genetics: hOCT1 uptake assay in HEK293 cells transfected with wild-type YES1 or T348I gatekeeper mutant, then dasatinib; type: cell-based, human; conditions: HEK293-hOCT1, dasatinib 1 µM 15 min, [14C] TEA uptake
Method: as §1, with “The” for “Uptake assays were performed with radiolabeled TEA (2 µM) or metformin (5 µM) as described previously ([Sprowl et al., 2013]; [Pabla et al., 2015]) in the presence or absence of TKIs. The”

[10] = system: OCT1; design: method as in Furmanski et al., 2013; conditions: ref Furmanski et al., 2013; cited from earlier work
[11] = target: T4, hepatic OCT1; conditions: OCT1/2-deficient vs wild-type mice, [14C] TEA 0.2 mg/kg i.v.
[12] = target: YES1; conditions: read-out: YES1 Kd; ref Klaeger et al., 2017; KINOMEscan data—HMS LINCS Project, 2020; cited from earlier work

SMILES: Cc1cc2cc(C(=O)c3cnn(-c4cnc(Oc5c(F)cccc5F)cc4C)c3N)[nH]c2cc1NS(C)(=O)=O [CH6953755]
- inhibition of hOCT2-mediated transport [1]: also observed
- inhibition of mOCT1-mediated transport ([2]; models overexpressing mOCT1, Supplementary Figure S4C): also observed
- IC50 ([3]; HEK293-hOCT1, [14C] TEA 2 µM, 15 min pre-incubation + 15 min co-incubation, read-out: IC50, hOCT1-mediated transport of TEA): 2760 nM
- IC50 ([3]; HEK293-hOCT1, [14C] metformin 5 µM, read-out: IC50, hOCT1-mediated transport of metformin): 2310 nM

SMILES: Cc1nc(Nc2ncc(C(=O)Nc3c(C)cccc3Cl)s2)cc(N2CCN(CCO)CC2)n1 [Dasatinib, dasatinib]
- OCT1 inhibition [5]: Yes
- OCT1 function in dose-response experiments [5]: potently inhibited
- plasma levels of IBC after dasatinib, OCT1/2-deficient or OCT1/2/MATE1-deficient mice [6]: not
- plasma levels of IBC after dasatinib, wild-type mice ([6]; wild-type mice): transient, statistically significant increase
- IC50 ([2]; HEK293-mOCT1, [14C] TEA 2 µM, 15 min pre-incubation + 15 min co-incubation, read-out: IC50, mOCT1-mediated transport of TEA): 1090 nM
- Ki ([2]; read-out: inhibition constant (Ki), Dixon plot, mOCT1): 870 nM
- OCT3 function in presence of TKI [7]: potently inhibiting
- OCT2 inhibition ([8]; ref Sprowl et al., 2016): Yes
- OCT2 inhibition, co-incubation designs ([8]; ref Minematsu and Giacomini, 2011): only a weak inhibitor
- OCT2 function, pre-incubation conditions ([8]; ref Sprowl et al., 2016): potently inhibits
- OCT1 function (TEA transport) in presence of TKI [3]: inhibit OCT1 function
- dasatinib-mediated OCT1 inhibition in cells with TKI-resistant YES1 (T348I gatekeeper) mutant [9]: rescue
- dasatinib-mediated OCT1 inhibition in cells with YES1 wild-type construct [9]: retained sensitivity
- transported substrate of OCT1 [10]: not themselves transported substrate

SMILES: CCc1nc(C(N)=O)c(Nc2ccc(N3CCC(N4CCN(C)CC4)CC3)c(OC)c2)nc1NC1CCOCC1 [Gilteritinib, gilteritinib]
- IC50 at 15 min [4]: 10 to 20 nM
- OCT1 inhibition [5]: Yes
- OCT1 function in dose-response experiments [5]: potently inhibited
- OCT3 function in presence of TKI [7]: no influence
- OCT2 inhibition ([8]; ref Sprowl et al., 2016): Yes
- OCT1 function (TEA transport) in presence of TKI [3]: inhibit OCT1 function

SMILES: C=CC(=O)N1CCC[C@@H](n2nc(-c3ccc(Oc4ccccc4)cc3)c3c(N)ncnc32)C1 [Ibrutinib, ibrutinib]
- IC50 at 15 min [4]: 890 to 1180 nM
- OCT1 inhibition [5]: Yes
- OCT1 function in dose-response experiments [5]: potently inhibited
- OCT3 function in presence of TKI [7]: no influence
- OCT2 inhibition ([8]; ref Sprowl et al., 2016): Yes
- OCT1 function (TEA transport) in presence of TKI [3]: inhibit OCT1 function

SMILES: CS(=O)(=O)CCNCc1ccc(-c2ccc3ncnc(Nc4ccc(OCc5cccc(F)c5)c(Cl)c4)c3c2)o1 [Lapatinib, lapatinib]
- OCT1 inhibition [5]: No
- OCT2 inhibition ([8]; ref Sprowl et al., 2016): No
- OCT1 function (TEA transport) in presence of TKI [3]: not

SMILES: CC[N+](CC)(CC)CC [TEA, tetraethylammonium]
- hepatic uptake of TEA (liver-to-plasma concentration ratio) in OCT1/2-deficient mice [11]: dramatically reduced

SMILES: COc1cc2c(Nc3ccc(Br)cc3F)ncnc2cc1OCC1CCN(C)CC1 [Vandetanib, vandetanib]
- IC50 at 15 min [4]: 1350 to 9050 nM
- OCT1 inhibition [5]: Yes
- OCT1 function in dose-response experiments [5]: potently inhibited
- OCT2 inhibition ([8]; ref Sprowl et al., 2016): Yes
- OCT1 function (TEA transport) in presence of TKI [3]: inhibit OCT1 function
- Kd [12]: 120 nM

SMILES: COc1cc(Nc2c(C#N)cnc3cc(OCCCN4CCN(C)CC4)c(OC)cc23)c(Cl)cc1Cl [bosutinib]
- OCT3 function in presence of TKI [7]: no influence
- OCT1 function (TEA transport) in presence of TKI [3]: inhibit OCT1 function

SMILES: CCN(CC)CCNC(=O)c1c(C)[nH]c(/C=C2\C(=O)Nc3ccc(F)cc32)c1C [sunitinib]
- OCT3 function in presence of TKI [7]: potently inhibiting
- OCT1 function (TEA transport) in presence of TKI [3]: inhibit OCT1 function
